Test results from article PMC3961306, “Comparison of the Cancer Gene Targeting and Biochemical Selectivities of All Targeted Kinase Inhibitors Approved for Clinical Use” (PLoS ONE, 2014).
Read-outs that look alike come from different tables or passages of the source.

Legend:
[1] = test system: forty-four human cancer cell lines; test: Cell proliferation assay (ATPlite, 72 hours) in the 44 cell line Oncolines panel; assay type: cell-based; conditions: Homo sapiens
[2] = molecular target: panel of more than 300 wild-type and mutant kinases (313 kinase panel) (Homo sapiens, UniProt P00519); test: Kinase profiling in a biochemical assay panel (mobility shift assays and ELISA), %-inhibition at 1 μM; selectivity entropy; conditions: kinase ABL; 1 μM compound
[3] = molecular target: panel of more than 300 wild-type and mutant kinases (313 kinase panel) (Homo sapiens, UniProt P22612); test: as above; conditions: kinase PKACγ; 1 μM
[4] = molecular target: panel of more than 300 wild-type and mutant kinases (313 kinase panel) (Homo sapiens, UniProt P00533, T790M); test: as above; conditions: kinase EGFR(T790M); compound at 1 μM
[5] = molecular target: panel of more than 300 wild-type and mutant kinases (313 kinase panel) (Homo sapiens, UniProt P07947, T348I); test: as above; conditions: kinase YES(T348I); compound at 1 μM
[6] = molecular target: panel of more than 300 wild-type and mutant kinases (313 kinase panel) (Homo sapiens, UniProt Q9UM73, R1275Q); test: as above; conditions: kinase ALK(R1275Q); 1 μM compound
[7] = molecular target: panel of more than 300 wild-type and mutant kinases (313 kinase panel) (Homo sapiens, UniProt P00533, L858R); test: as above; conditions: kinase EGFR(L858R); compound at 1 μM
[8] = molecular target: panel of more than 300 wild-type and mutant kinases (313 kinase panel) (Homo sapiens, UniProt P00533); test: as above; conditions: kinase EGFR; compound at 1 μM
[9] = molecular target: panel of more than 300 wild-type and mutant kinases (313 kinase panel) (Homo sapiens, UniProt P00533, L858R/T790M); test: as above; conditions: kinase EGFR(T790M/L858R); compound at 1 μM
[10] = molecular target: panel of more than 300 wild-type and mutant kinases (313 kinase panel) (Homo sapiens, UniProt P11362, V561M); test: as above; conditions: kinase FGFR1(V561M); compound at 1 μM
[11] = molecular target: panel of more than 300 wild-type and mutant kinases (313 kinase panel) (Homo sapiens, UniProt P15056); test: as above; conditions: kinase BRAF; 1 μM compound
[12] = molecular target: panel of more than 300 wild-type and mutant kinases (313 kinase panel) (Homo sapiens, UniProt P00533, L861Q); test: as above; conditions: kinase EGFR(L861Q); compound at 1 μM
[13] = molecular target: panel of more than 300 wild-type and mutant kinases (313 kinase panel) (Homo sapiens, UniProt P15056, V600E); test: as above; conditions: kinase BRAF(V600E); 1 μM compound
[14] = molecular target: panel of more than 300 wild-type and mutant kinases (313 kinase panel) (Homo sapiens, UniProt P00519, E255K); test: as above; conditions: kinase ABL(E255K); 1 μM compound
[15] = molecular target: panel of more than 300 wild-type and mutant kinases (313 kinase panel) (Homo sapiens, UniProt P09619); test: as above; conditions: kinase PDGFRβ; 1 μM

SMILES: COc1cc2nccc(Oc3ccc(NC(=O)C4(C(=O)Nc5ccc(F)cc5)CC4)cc3)c2cc1OC [cabozantinib]
- IC50 ([1]; 4-4 cell, read-out: cell panel IC50, J82): 22.9 µM
- IC50 ([1]; 4-4 cell, read-out: cell panel IC50, PA-1): 17.8 µM
- IC50 ([1]; 4-4 cell, read-out: cell panel IC50, SJCRH30): 15.2 µM
- IC50 ([1]; 4-4 cell, read-out: cell panel IC50, SR): 24.5 µM
- IC50 ([1]; 769-P, read-out: cell panel IC50, 769-P): 30 µM
- IC50 ([1]; 786-0, read-out: cell panel IC50, 786-0): 28.7 µM
- IC50 ([1]; A 172, read-out: cell panel IC50, A-172): 14.6 µM
- IC50 ([1]; A204, read-out: cell panel IC50, A-204): 0.082 µM
- IC50 ([1]; A498, read-out: cell panel IC50, A-498): 24.1 µM
- IC50 ([1]; A549, read-out: cell panel IC50, A-549): 18.5 µM
- IC50 ([1]; A-375, read-out: cell panel IC50, A375): > 31.6 µM
- IC50 ([1]; A-427, read-out: cell panel IC50, A-427): 14.3 µM
- IC50 ([1]; ACHN, read-out: cell panel IC50, ACHN): 20.9 µM
- IC50 ([1]; AN3-CA, read-out: cell panel IC50, AN3 CA): 6.03 µM
- IC50 ([1]; AU565, read-out: cell panel IC50, AU-565): 20.1 µM
- IC50 ([1]; BT-20, read-out: cell panel IC50, BT-20): > 31.6 µM
- IC50 ([1]; BT-549, read-out: cell panel IC50, BT-549): 30.3 µM
- IC50 ([1]; BXPC-3, read-out: cell panel IC50, BxPC-3): 24.1 µM
- IC50 ([1]; C-33-A, read-out: cell panel IC50, C-33 A): 19.7 µM
- IC50 ([1]; CAL-27, read-out: cell panel IC50, CAL 27): 23.4 µM
- IC50 ([1]; CCRF-CEM, read-out: cell panel IC50, CCRF-CEM): 19.5 µM
- IC50 ([1]; DLD-1, read-out: cell panel IC50, DLD-1): 22.7 µM
- IC50 ([1]; FaDu, read-out: cell panel IC50, FaDu): > 31.6 µM
- IC50 ([1]; HCT-15, read-out: cell panel IC50, HCT-15): 21.9 µM
- IC50 ([1]; HCT-116, read-out: cell panel IC50, HCT-116): 20.9 µM
- IC50 ([1]; Hs-578T, read-out: cell panel IC50, Hs 578T): 24.2 µM
- IC50 ([1]; Jurkat E6.1, read-out: cell panel IC50, Jurkat E6.1): 11.5 µM
- IC50 ([1]; K562, read-out: cell panel IC50, K-562): 3.94 µM
- IC50 ([1]; LS174T, read-out: cell panel IC50, LS 174T): > 31.6 µM
- IC50 ([1]; LoVo, read-out: cell panel IC50, LoVo): 7.63 µM
- IC50 ([1]; MG-63, read-out: cell panel IC50, MG-63): 15.6 µM
- IC50 ([1]; MOLT-4, read-out: cell panel IC50, MOLT-4): 12.1 µM
- IC50 ([1]; MeWo, read-out: cell panel IC50, MeWo): 29.8 µM
- IC50 ([1]; NCI-H82, read-out: cell panel IC50, NCI-H82): 16.8 µM
- IC50 ([1]; NCI-H460, read-out: cell panel IC50, NCI-H460): 28.1 µM
- IC50 ([1]; OVCAR-3, read-out: cell panel IC50, OVCAR-3): > 31.6 µM
- IC50 ([1]; RPMI-7951, read-out: cell panel IC50, RPMI-7951): 14.9 µM
- IC50 ([1]; SHP77, read-out: cell panel IC50, SHP-77): > 31.6 µM
- IC50 ([1]; SK-N-AS, read-out: cell panel IC50, SK-N-AS): 31 µM
- IC50 ([1]; SW48, read-out: cell panel IC50, SW48): 12.5 µM
- IC50 ([1]; SW480, read-out: cell panel IC50, SW480): 16.2 µM
- IC50 ([1]; SW-620, read-out: cell panel IC50, SW620): 6.24 µM
- IC50 ([1]; U2OS, read-out: cell panel IC50, U-2 OS): 19.3 µM
- IC50 ([1]; U-87 MG, 72 h, read-out: IC50 in cell proliferation assay (table S5 cellpanel data)): 22.3 µM
- %-inhibition, ABL [2]: 56%
- %-inhibition of PKACγ [3]: -2.59%
- %-inhibition of EGFR(T790M) [4]: 32%
- %-inhibition of YES(T348I) [5]: 67%
- %-inhibition, ALK(R1275Q) [6]: 79%
- %-inhibition of EGFR(L858R) [7]: 30%
- %-inhibition of EGFR [8]: 54%
- %-inhibition of EGFR(T790M/L858R) [9]: 29%
- %-inhibition of FGFR1(V561M) [10]: -2.45%
- %-inhibition, BRAF [11]: 25%
- %-inhibition of EGFR(L861Q) [12]: 46%
- %-inhibition, BRAF(V600E) [13]: 37%
- %-inhibition, ABL(E255K) [14]: 25%
- %-inhibition of PDGFRβ [15]: 84%
